The Kinase Knowledgebase extract (Sharma et al. 2016)

target: MAPK14 (human) (UniProt Q16539); assay: Inhibition of MAPK14 Kinase Activity
Sequence (Q16539 whole entry, looked up): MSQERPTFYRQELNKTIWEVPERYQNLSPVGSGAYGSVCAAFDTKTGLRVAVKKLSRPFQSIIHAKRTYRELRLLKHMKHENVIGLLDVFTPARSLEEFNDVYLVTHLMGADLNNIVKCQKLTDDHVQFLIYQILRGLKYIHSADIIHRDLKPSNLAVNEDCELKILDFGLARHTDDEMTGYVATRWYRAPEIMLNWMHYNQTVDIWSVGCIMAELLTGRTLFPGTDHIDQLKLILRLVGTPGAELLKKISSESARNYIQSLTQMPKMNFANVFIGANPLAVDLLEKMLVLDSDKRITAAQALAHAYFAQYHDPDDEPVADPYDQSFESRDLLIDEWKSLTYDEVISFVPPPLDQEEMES

Compound	IC50 [nM]
O=c1[nH]c2cc(Nc3ccccc3)ccc2n1CC1CCCO1 (configuration not stated)	< 1000
O=c1[nH]c2cc(Nc3ccc(F)cc3F)ccc2n1CC1CCCCC1	< 1000
O=c1[nH]c2cc(Nc3ccccc3F)c(N3CCNCC3)cc2n1CC1CCCCC1	< 1000
O=c1[nH]c2cc(Nc3ccccc3)ccc2n1C1CCNC1 (configuration not stated)	< 1000
CN(C)CC(C)(C)n1c(=O)[nH]c2cc(Nc3ccccc3)ccc21	< 1000
O=c1[nH]c2cc(Nc3ccc(F)c(F)c3)ccc2n1CC1CCCCC1	< 1000
CN1CCC(n2c(=O)[nH]c3cc(Nc4ccccc4)ccc32)C1 (configuration not stated)	< 1000
CC(C)(C)n1c(=O)[nH]c2cc(Nc3ccccc3)ccc21	< 1000
O=c1[nH]c2cc(Nc3ccccc3)c(N3CCNCC3)cc2n1CC1CCCCC1	< 1000
O=c1[nH]c2cc(Nc3ccccc3F)ccc2n1C1CCNC1 (configuration not stated)	< 1000
O=c1[nH]c2cc(Nc3ccccc3)ccc2n1C1CCCc2ccccc21 (configuration not stated)	< 1000
O=c1[nH]c2cc(Nc3ccccc3)ccc2n1CCc1ccccc1	< 1000
CS(=O)(=O)N1CCC(n2c(=O)[nH]c3cc(Nc4ccc(F)cc4)ccc32)C1 (configuration not stated)	< 1000
CC(C)(CN)n1c(=O)[nH]c2cc(Nc3ccccc3F)ccc21	< 1000
Cc1ccccc1Nc1ccc2c(c1)[nH]c(=O)n2CC1CCCCC1	< 1000
Cc1ccccc1Nc1ccc2c(c1)[nH]c(=O)n2C1CCN(C)C1 (configuration not stated)	< 1000
Cc1ccccc1Nc1cc2[nH]c(=O)n(CC3CCCCC3)c2cc1N(C)CCN(C)C	< 1000
CN1CCC(n2c(=O)[nH]c3cc(Nc4ccc(F)cc4F)ccc32)C1 (configuration not stated)	< 1000
COc1cccc(Cn2c(=O)[nH]c3cc(Nc4ccccc4)ccc32)c1	< 1000
CNCC(C)(C)n1c(=O)[nH]c2cc(Nc3ccc(F)cc3)ccc21	< 1000
O=c1[nH]c2cc(Nc3ccc(F)cc3)ccc2n1C1CCNC1 (configuration not stated)	< 1000

Compound	IC50 [nM]
Cc1ccccc1Nc1ccc2c(c1)[nH]c(=O)n2C1CCNC1 (configuration not stated)	< 1000
O=c1[nH]c2cc(Nc3ccccc3)ccc2n1-c1ccccc1	< 1000
CC(c1ccccc1)n1c(=O)[nH]c2cc(Nc3ccccc3)ccc21 (configuration not stated)	< 1000
CC(C)(CN)n1c(=O)[nH]c2cc(Nc3ccc(F)cc3F)ccc21	< 1000
O=c1[nH]c2cc(Nc3ccc(F)cc3)ccc2n1CC1CCCCC1	< 1000
CCS(=O)(=O)N1CCC(n2c(=O)[nH]c3cc(Nc4ccccc4)ccc32)C1 (configuration not stated)	< 1000
CS(=O)(=O)N1CCC(n2c(=O)[nH]c3cc(Nc4ccccc4F)ccc32)C1 (configuration not stated)	< 1000
C=C/C(=C\C=C(/C)F)Nc1ccc2c(c1)[nH]c(=O)n2C(C)(C)CN(C)C	< 1000
O=c1[nH]c2cc(Nc3ccccc3)ccc2n1C1CCc2ccccc21 (configuration not stated)	< 1000
CN1CCC(n2c(=O)[nH]c3cc(Nc4ccc(F)cc4)ccc32)C1 (configuration not stated)	< 1000
CCS(=O)(=O)N1CCC(n2c(=O)[nH]c3cc(Nc4ccc(F)cc4)ccc32)C1 (configuration not stated)	< 1000
CNCC(C)(C)n1c(=O)[nH]c2cc(Nc3ccccc3F)ccc21	< 1000
CC(C)(CN)n1c(=O)[nH]c2cc(Nc3ccccc3)ccc21	< 1000
CCS(=O)(=O)N1CCC(n2c(=O)[nH]c3cc(Nc4ccccc4C)ccc32)C1 (configuration not stated)	< 1000
COc1ccccc1Nc1ccc2c(c1)[nH]c(=O)n2CC1CCCCC1	< 1000
CN1CCC(n2c(=O)[nH]c3cc(Nc4ccccc4F)ccc32)C1 (configuration not stated)	< 1000
Cc1ccccc1Nc1cc2[nH]c(=O)n(CC3CCCCC3)c2cc1N(C)CCCN(C)C	< 1000
CNCC(C)(C)n1c(=O)[nH]c2cc(Nc3ccccc3)ccc21	< 1000
Cc1ccccc1Nc1ccc2c(c1)[nH]c(=O)n2C(C)(C)CN(C)C	< 1000
O=c1[nH]c2cc(Nc3ccccc3)ccc2n1CC1CCCCC1	< 1000
O=c1[nH]c2cc(Nc3ccccc3)ccc2n1Cc1cccnc1	< 1000

Compound	IC50 [nM]
O=c1[nH]c2cc(Nc3ccccc3)ccc2n1Cc1c(F)cccc1F	< 1000
Cc1ccccc1Nc1cc2[nH]c(=O)n(CC3CCCCC3)c2cc1N1CCN(C)CC1	< 1000
Cc1ccccc1Nc1ccc2c(c1)[nH]c(=O)n2C(C)(C)CN	< 1000
CN(C)CC(C)(C)n1c(=O)[nH]c2cc(Nc3ccc(F)cc3F)ccc21	< 1000
CCS(=O)(=O)N1CCC(n2c(=O)[nH]c3cc(Nc4ccccc4F)ccc32)C1 (configuration not stated)	< 1000
CNCC(C)(C)n1c(=O)[nH]c2cc(Nc3ccccc3C)ccc21	< 1000
CC(C)(CN)n1c(=O)[nH]c2cc(Nc3ccc(F)cc3)ccc21	< 1000
CCS(=O)(=O)N1CCC(n2c(=O)[nH]c3cc(Nc4ccc(F)cc4F)ccc32)C1 (configuration not stated)	< 1000
CC(C1CCCCC1)n1c(=O)[nH]c2cc(Nc3ccccc3)ccc21 (configuration not stated)	< 1000
Cc1ccc(Nc2ccc3c(c2)[nH]c(=O)n3CC2CCCCC2)cc1N	< 1000
O=c1[nH]c2cc(Nc3ccccc3)ccc2n1Cc1ccccc1	< 1000
Cc1ccccc1Nc1ccc2c(c1)[nH]c(=O)n2C1CCN(S(C)(=O)=O)C1 (configuration not stated)	< 1000
O=c1[nH]c2cc(Nc3ccccc3)ccc2n1C1CCCC1	< 1000
CS(=O)(=O)N1CCC(n2c(=O)[nH]c3cc(Nc4ccc(F)cc4F)ccc32)C1 (configuration not stated)	< 1000
O=c1[nH]c2cc(Nc3ccccc3F)ccc2n1CC1CCCCC1	< 1000
O=c1[nH]c2cc(Nc3cccc(F)c3)ccc2n1CC1CCCCC1	< 1000
CN1CCN(c2cc3c(cc2Nc2ccccc2)[nH]c(=O)n3CC2CCCCC2)CC1	< 1000
O=c1[nH]c2cc(Nc3ccc(F)cc3F)ccc2n1C1CCNC1 (configuration not stated)	< 1000
CN1CCN(c2cc3c(cc2Nc2ccccc2F)[nH]c(=O)n3C2CCCC2)CC1	< 1000
CN(C)CC(C)(C)n1c(=O)[nH]c2cc(Nc3ccccc3F)ccc21	< 1000
